Laboratory results published in ChEMBL document CHEMBL3638462, “Pyridine and pyrimidine derivatives as phosphodiesterase 10 inhibitors” (2014).
“And” between values parts separate entries of the source, which are not always exact repeats. Identical values can stand only once.

Target: cAMP and cAMP-inhibited cGMP 3',5'-cyclic phosphodiesterase 10A (Homo sapiens, UniProt Q9Y233)
Experiment: Enzyme Inhibition Assay: To check the inhibition profile, 5 μL of serial diluted compounds were incubated with 5 μL of diluted PDE10 enzyme (BPS Bioscience, San Diego, Calif.) or tissue homogenate in a 384-well polystyrene assay plate (Corning, Corning, N.Y.) for 30 min at room temperature. After incubation, 10 μL of diluted fluorescein labeled cAMP or cGMP substrate were added and incubated for 60 min at room temperature. The reaction was stopped by adding 60 μL of diluted binding reagents and plates were read on an Envision (Perkin Elmer, Waltham, Mass.) for time resolved fluorescence resonance energy transfer. The data were analyzed with GraphPad Prism (La Jolla, Calif.).

Sequence of cAMP and cAMP-inhibited cGMP 3',5'-cyclic phosphodiesterase 10A (Q9Y233 whole entry): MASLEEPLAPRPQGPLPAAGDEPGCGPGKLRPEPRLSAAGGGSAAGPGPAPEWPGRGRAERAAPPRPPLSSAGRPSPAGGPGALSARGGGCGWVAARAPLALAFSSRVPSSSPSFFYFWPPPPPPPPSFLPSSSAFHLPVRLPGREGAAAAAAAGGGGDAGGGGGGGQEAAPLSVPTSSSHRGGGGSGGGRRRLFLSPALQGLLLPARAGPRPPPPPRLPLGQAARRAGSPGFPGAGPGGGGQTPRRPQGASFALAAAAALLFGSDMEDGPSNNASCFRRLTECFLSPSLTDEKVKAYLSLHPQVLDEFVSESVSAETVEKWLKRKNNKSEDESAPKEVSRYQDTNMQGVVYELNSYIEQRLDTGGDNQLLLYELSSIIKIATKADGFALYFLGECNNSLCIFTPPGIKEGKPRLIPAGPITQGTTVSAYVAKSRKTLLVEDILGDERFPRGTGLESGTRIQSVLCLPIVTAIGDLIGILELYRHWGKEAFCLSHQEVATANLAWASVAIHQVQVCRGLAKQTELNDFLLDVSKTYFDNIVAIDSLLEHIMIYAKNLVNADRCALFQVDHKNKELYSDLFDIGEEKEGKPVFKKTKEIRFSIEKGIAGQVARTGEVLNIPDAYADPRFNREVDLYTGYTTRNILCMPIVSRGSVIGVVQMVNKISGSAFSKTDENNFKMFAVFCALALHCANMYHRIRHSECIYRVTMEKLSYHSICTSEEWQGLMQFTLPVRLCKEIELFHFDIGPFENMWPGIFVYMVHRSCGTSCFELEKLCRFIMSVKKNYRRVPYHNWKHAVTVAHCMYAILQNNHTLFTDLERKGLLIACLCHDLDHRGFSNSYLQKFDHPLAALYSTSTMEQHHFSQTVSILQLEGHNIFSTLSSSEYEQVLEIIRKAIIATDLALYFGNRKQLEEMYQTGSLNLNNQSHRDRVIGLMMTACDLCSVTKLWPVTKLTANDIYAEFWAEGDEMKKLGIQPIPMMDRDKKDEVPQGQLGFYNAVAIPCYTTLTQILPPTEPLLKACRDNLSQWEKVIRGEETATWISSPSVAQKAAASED

| IC50 | SMILES |
| --- | --- |
| 0.158 nM | CC(=O)N1CCC(c2cccnc2Oc2ccc(C(=O)c3nc4ccccc4[nH]3)cc2)CC1 |
| 0.256 nM | O=C(c1ccc(Oc2ncccc2-c2ccncc2)cc1)c1nc2ccccc2[nH]1 |
| 44.7 nM | O=C(c1ccc(Oc2ncccc2Br)cc1)c1nc2ccccc2[nH]1 |
| 0.76 nM | Cc1cc(-c2cccnc2Oc2ccc(C(=O)c3nc4ccccc4[nH]3)cc2)ccn1 |
| 6.28 nM | Cn1cc(-c2cccnc2Oc2ccc(C(=O)c3nc4ccccc4[nH]3)cc2)cn1 |
| 1.59 nM | O=C(c1ccc(Oc2ncccc2N2CCOCC2)cc1)c1nc2ccccc2[nH]1 |
| 23.7 nM | COc1ccc(-c2cccnc2Oc2ccc(Nc3nc4ccccc4s3)cc2)cn1 |
| 0.303 nM | c1cnc(Oc2ccc(Nc3nc4ccccc4s3)cc2)c(-c2cncnc2)c1 |
| 32 nM | O=C(c1ccc(Oc2ncccc2-c2cccnc2)cc1)c1nc2ccccc2s1 |
| 5 nM | Cc1cc(-c2cccnc2Oc2ccc(Nc3nc4ccccc4s3)cc2)ccn1 |
| 118 nM | FC(F)(F)c1cc(-c2cccnc2Oc2ccc(Cc3nc4ccccc4[nH]3)cc2)ccn1 |
| 23 nM | O=C(c1ccc(Oc2ncccc2-c2cnn(C3CC3)c2)cc1)c1nc2ccccc2[nH]1 |
| 22.4 nM | c1cnc(Oc2ccc(Nc3nc4ccccc4s3)cc2)c(-c2ccncn2)c1 |
| 1.74 nM | O=C(c1ccc(Oc2ncccc2C(=O)NCCc2ccccn2)cc1)c1nc2ccccc2[nH]1 |
| 12.8 nM | COC[C@H](C)NC(=O)c1cccnc1Oc1ccc(C(=O)c2nc3ccccc3[nH]2)cc1 |
| 32.7 nM | O=C(c1ccc(Oc2ncccc2-c2ncnc3nc[nH]c23)cc1)c1nc2ccccc2[nH]1 |
| 7.45 nM | O=C(c1ccc(Oc2ncccc2-c2ccncn2)cc1)c1nc2ccccc2[nH]1 |
| 0.177 nM | Cc1ccc(-c2cccnc2Oc2ccc(C(=O)c3nc4ccccc4[nH]3)cc2)cn1 |
| 74.6 nM | O=C(c1ccc(Oc2ncccc2Br)cc1)c1nc2ccc(F)cc2[nH]1 |
| 3940 nM | O=C(c1ccc(Oc2ncccc2Br)cc1)c1nc2ccccc2s1 |
| 0.971 nM and 0.541 nM | C[C@@H](Cc1ccccn1)NC(=O)c1cccnc1Oc1ccc(C(=O)c2nc3ccccc3[nH]2)cc1 |

| IC50 | SMILES |
| --- | --- |
| 14 nM | O=C(c1ccc(Oc2ncccc2N2CCCC2)cc1)c1nc2ccccc2[nH]1 |
| 0.67 nM | O=C(c1ccc(Oc2ncccc2-c2ccnc3ccccc23)cc1)c1nc2ccccc2[nH]1 |
| 0.168 nM | O=C(c1ccc(Oc2ncccc2C(=O)NC2(Cc3ccccc3)CC2)cc1)c1nc2ccccc2[nH]1 |
| 15.2 nM | CN(c1ccc(Oc2ncccc2-c2cccnc2)cc1)c1nc2ccccc2s1 |
| 4.81 nM | O=C(c1ccc(Oc2ncccc2-c2cccnc2)cc1)c1nc2ncccc2[nH]1 |
| 2.72 nM | O=C(c1ccc(Oc2ncccc2C(=O)NCCc2ccccc2)cc1)c1nc2ccccc2[nH]1 |
| 0.219 nM | Cc1ccc(-c2cccnc2Oc2ccc(Nc3nc4ccccc4s3)cc2)cn1 |
| 3.11 nM | Cc1ccc(CCNC(=O)c2cccnc2Oc2ccc(C(=O)c3nc4ccccc4[nH]3)cc2)cc1 |
| 1.64 nM | COC[C@H](Cc1ccccc1)NC(=O)c1cccnc1Oc1ccc(C(=O)c2nc3ccccc3[nH]2)cc1 |
| 56.7 nM | O=C(c1ccc(Oc2ncccc2C(=O)NC2Cc3ccccc3C2)cc1)c1nc2ccccc2[nH]1 |
| 0.194 nM | CC(=O)N1CC=C(c2cccnc2Oc2ccc(C(=O)c3nc4ccccc4[nH]3)cc2)CC1 |
| 1.01 nM | O=C1C=C(c2cccnc2Oc2ccc(C(=O)c3nc4ccccc4[nH]3)cc2)CC1 |
| 4.97 nM and 13.3 nM | O=C(c1ccc(Oc2ncccc2[C@@H]2CCCO2)cc1)c1nc2ccccc2[nH]1 |
| 0.92 nM | O=C(c1ccc(Oc2ncccc2[C@@H]2CCOC2)cc1)c1nc2ccccc2[nH]1 |
| 0.311 nM | O=C(c1ccc(Oc2ncccc2C2(F)CCOCC2)cc1)c1nc2ccccc2[nH]1 |
| 0.135 nM | C[C@H](Cc1ccc(F)cc1)NC(=O)c1cccnc1Oc1ccc(C(=O)c2nc3ccccc3[nH]2)cc1 |
| 1.27 nM | COc1ccc(-c2cccnc2Oc2ccc(C(=O)c3nc4ccccc4[nH]3)cc2)cn1 |
| 6.83 nM | C[C@H](Cc1ccccn1)NC(=O)c1cccnc1Oc1ccc(C(=O)c2nc3ccccc3[nH]2)cc1 |
| 1.63 nM | C[C@]1(O)CC[C@@H](c2cccnc2Oc2ccc(C(=O)c3nc4ccccc4[nH]3)cc2)CC1 |
| 1.42 nM | C[C@]1(O)CC[C@H](c2cccnc2Oc2ccc(C(=O)c3nc4ccccc4[nH]3)cc2)CC1 |
| 2.54 nM | COc1ncccc1-c1cccnc1Oc1ccc(Nc2nc3ccccc3s2)cc1 |

More lines, now with the values behind:

| SMILES | IC50 |
| --- | --- |
| N#Cc1ccc2[nH]c(Nc3ccc(Oc4ncccc4C(F)(F)F)cc3)nc2c1 | 112 nM |
| CC(=O)N1CCC(c2cccnc2Oc2ccc(Nc3nc4ccccc4s3)cc2)CC1 | 0.175 nM |
| C[C@]1(O)CCC[C@H](c2cccnc2Oc2ccc(Nc3ccccn3)cc2)C1 | 24.2 nM |
| Brc1cccnc1Oc1ccc(Nc2nc3ccccc3s2)cc1 | 691 nM |
| COc1cc(-c2cccnc2Oc2ccc(C(=O)c3nc4ccccc4[nH]3)cc2)ccn1 | 1.61 nM |
| N#Cc1cccc(-c2cccnc2Oc2ccc(Nc3nc4ccccc4s3)cc2)c1 | 18.3 nM |
| FC(F)(F)c1cc(-c2cccnc2Oc2ccc(Nc3nc4ccccc4[nH]3)cc2)ccn1 | 36.7 nM |
| O=C(c1ccc(Oc2ncccc2Br)cc1)c1nc2ccccc2n1C1CCCCO1 (configuration not stated) | 1610 nM |
| O=C(c1ccc(Oc2ncccc2N2CCOCC2)cc1)c1nc2ccccc2s1 | 98.8 nM |
| c1cnc(Oc2ccc(Nc3nc4ccccc4s3)cc2)c(-c2cccc3ncccc23)c1 | 6.91 nM |
| c1cnc(Oc2ccc(Nc3nc4ccccc4s3)cc2)c(-c2ccc3c(c2)OCCO3)c1 | 43.9 nM |
| c1cnc(Oc2ccc(Nc3nc4ccccc4s3)cc2)c(-c2ccc3c(c2)CCO3)c1 | 42.4 nM |
| C1=C(c2cccnc2Oc2ccc(Nc3nc4ccccc4s3)cc2)CCCC1 | 72 nM |
| O=C(c1ccc(Oc2ncccc2N2CCCCC2)cc1)c1nc2ccccc2[nH]1 | 13.3 nM |
| O=C(c1ccc(Oc2ncccc2C(=O)N[C@@H](CO)Cc2ccccc2)cc1)c1nc2ccccc2[nH]1 | 12.8 nM |
| O=C(c1ccc(Oc2ncccc2C(=O)N[C@H](CO)Cc2ccccc2)cc1)c1nc2ccccc2[nH]1 | 0.839 nM |
| CC(C)(CNC(=O)c1cccnc1Oc1ccc(C(=O)c2nc3ccccc3[nH]2)cc1)c1ccccn1 | 1.48 nM |
| c1cnc(Oc2ccc(Nc3nc4ccccc4s3)cc2)c(-c2ccnc3ccccc23)c1 | 7.22 nM |
| CC(C)(C)OC(=O)N1CC=C(c2cccnc2Oc2ccc(Nc3nc4ccccc4s3)cc2)CC1 | 44.4 nM |
| O=C(c1ccc(Oc2ncccc2C(=O)N[C@H](CO)Cc2ccc(O)cc2)cc1)c1nc2ccccc2[nH]1 | 3.65 nM |
| C1=C(c2cccnc2Oc2ccc(Nc3nc4ccccc4s3)cc2)CCOC1 | 2.21 nM |
| COC1CCN(c2cccnc2Oc2ccc(Nc3nc4ccccc4s3)cc2)CC1 | 3.16 nM |
| c1cncc(-c2cccnc2Oc2ccc(Nc3nc4ccccc4[nH]3)cc2)c1 | 0.179 nM |
| CC(=O)N1CC=C(c2cccnc2Oc2ccc(Nc3nc4ccccc4s3)cc2)CC1 | 0.363 nM |
| C[C@@H](CNC(=O)c1cccnc1Oc1ccc(C(=O)c2nc3ccccc3[nH]2)cc1)c1ccccc1 | 2.69 nM |
| C[C@H](CNC(=O)c1cccnc1Oc1ccc(C(=O)c2nc3ccccc3[nH]2)cc1)c1ccccc1 | 8.81 nM |
| CC(=O)N1CCC(c2cccnc2Oc2ccc([C@H](O)c3nc4ccccc4[nH]3)cc2)CC1 | 4.2 nM |
| OC(c1ccc(Oc2ncccc2C2CCOCC2)cc1)c1nc2ccccc2[nH]1 (configuration not stated) | 45.7 nM |

| SMILES | IC50 |
| --- | --- |
| O=C1C=C(c2cccnc2Oc2ccc(Nc3nc4ccccc4s3)cc2)CC1 | 2.84 nM |
| c1cnc(Oc2ccc(Nc3nc4ccccc4s3)cc2)c([C@H]2CCCO2)c1 | 54.2 nM |
| C1=CO[C@H](c2cccnc2Oc2ccc(Nc3nc4ccccc4s3)cc2)CC1 | 22.3 nM |
| O[C@@H]1CCC[C@H](c2cccnc2Oc2ccc(Nc3nc4ccccc4s3)cc2)C1 | 2.21 nM |
| C[C@]1(O)CCC[C@H](c2cccnc2Oc2ccc(Nc3nc4ccccc4s3)cc2)C1 | 6.87 nM |
| C[C@]1(O)CCC[C@H](c2cccnc2Oc2ccc(C(=O)c3nc4ccccc4[nH]3)cc2)C1 | 1.14 nM |
| CN1C[C@@H](c2cccnc2Oc2ccc(Nc3nc4ccccc4s3)cc2)CC1=O | 0.195 nM |
| FC(F)(c1ccc(Oc2ncccc2C2CCOCC2)cc1)c1nc2ccccc2[nH]1 | 11.6 nM |
| Cn1c(C(=O)c2ccc(Oc3ncccc3C3CCOCC3)cc2)nc2ccccc21 | 0.509 nM |
| O=C(c1ccc(Oc2ncccc2[C@@H]2CC[C@H](O)C2)cc1)c1nc2ccccc2[nH]1 | 0.675 nM |
| C[C@@]1(O)CCC[C@@H](c2cccnc2Oc2ccc(Nc3nc4ccccc4s3)cc2)C1 | 3.66 nM |
| COc1cncc(-c2cccnc2Oc2ccc(C(=O)c3nc4ccccc4[nH]3)cc2)c1 | 0.622 nM |
| c1cnc(Oc2ccc(Nc3nc4ccccc4s3)cc2)c([C@H]2CCOC2)c1 | 0.865 nM |
| O=C(c1ccc(Oc2ncccc2[C@H]2CCC[C@@H](O)C2)cc1)c1nc2ccccc2[nH]1 | 0.99 nM |
| C[C@]1(O)CCCC(c2cccnc2Oc2ccc(C(=O)c3nc4ccccc4[nH]3)cc2)C1 (some centres not stated) | 1.22 nM |
| C[C@]1(O)CC[C@@H](c2cccnc2Oc2ccc(Nc3nc4ccccc4s3)cc2)CC1 | 12.6 nM |
| C[C@]1(O)CC[C@H](c2cccnc2Oc2ccc(Nc3nc4ccccc4s3)cc2)CC1 | 4.51 nM |
| c1cnc(Oc2ccc(Nc3nc4ccccc4s3)cc2)c([C@@H]2CCCOC2)c1 | 2.49 nM |
| Cn1c(C(=O)c2ccc(Oc3ncccc3C3(F)CCOCC3)cc2)nc2ccccc21 | 0.749 nM |
| CC(=O)N1CCC[C@@H](c2cccnc2Oc2ccc(Nc3nc4ccccc4s3)cc2)C1 | 0.268 nM |
| O[C@@H]1CC[C@H](c2cccnc2Oc2ccc(Nc3nc4ccccc4s3)cc2)C1 | 2.64 nM |
| COc1cccc(-c2cccnc2Oc2ccc(Nc3nc4ccccc4s3)cc2)n1 | 164 nM |
| O[C@H]1CCC[C@@H](c2cccnc2Oc2ccc(Nc3nc4ccccc4s3)cc2)C1 | 3.75 nM |
| O[C@H]1CC[C@H](c2cccnc2Oc2ccc(Nc3nc4ccccc4s3)cc2)C1 | 1.21 nM |
| O[C@H]1CC[C@@H](c2cccnc2Oc2ccc(Nc3nc4ccccc4s3)cc2)C1 | 2.54 nM |
| O[C@H]1CC[C@H](c2cccnc2Oc2ccc(Nc3nc4ccccc4s3)cc2)CC1 | 6.38 nM |
| O[C@H]1CC[C@@H](c2cccnc2Oc2ccc(Nc3nc4ccccc4s3)cc2)CC1 | 1.63 nM |
